Reference: ChEMBL document CHEMBL6134800, “Applications of innovative synthetic strategies in anticancer drug discovery: The driving force of new chemical reactions” (Bioorg Med Chem Lett, 2025)
In brackets after ≈: the same amount, converted by molar mass. Blank lines part the entries; values can stand above or below the compound they belong to.

How the values were obtained:
DU-145 = experiment: Cytotoxicity against human DU-145 cells assessed as reduction in cell viability incubated for 48 hrs by SRB assay; format: functional, cell-based; settings: DU-145, 48 h
MDA-MB-231 [1] = experiment: Cytotoxicity against human MDA-MB-231 cells assessed as reduction in cell viability incubated for 48 hrs by SRB assay; format: functional, cell-based; settings: MDA-MB-231, 48 h
HepG2 [2] = experiment: Cytotoxicity against human HepG2 cells assessed as reduction in cell viability incubated for 48 hrs by SRB assay; format: functional, cell-based; settings: HepG2, 48 h
HeLa [3] = experiment: Cytotoxicity against human HeLa cells assessed as reduction in cell viability incubated for 48 hrs by SRB assay; format: functional, cell-based
[4] = Antioxidant activity assessed as hydroxyl radical scavenging activity; format: functional
A549 [5] = experiment: Growth inhibition of human A549 cells measured for 48 hrs by SRB assay; format: functional
PC-3 = experiment: Growth inhibition of human PC-3 cells measured for 48 hrs by SRB assay; format: functional
MCF7 [6] = experiment: Growth inhibition of human MCF7 cells measured for 48 hrs by SRB assay; format: functional
HepG2 [7] = experiment: Growth inhibition of human HepG2 cells measured for 48 hrs by SRB assay; format: functional
[8] = Antioxidant activity assessed as DPPH radical scavenging activity; format: functional
A549 [9] = experiment: Cytotoxicity against human A549 cells assessed as reduction in cell growth by resazurin assay; format: functional, cell-based
NIH3T3 = experiment: Cytotoxicity against mouse NIH/3T3 cells assessed as reduction in cell growth by resazurin assay; format: functional, cell-based
HL-60 = experiment: Cytotoxicity against human HL-60 cells assessed as reduction in cell growth by resazurin assay; format: functional, cell-based
Bacillus subtilis = experiment: Antibacterial activity against Bacillus subtilis assessed as reduction in bacterial growth; format: functional, organism-based
Escherichia coli = experiment: Antimicrobial activity against Escherichia coli assessed as reduction in microbial growth; format: functional, organism-based
HCT-116 [10] = experiment: Anticancer activity against human HCT-116 cells assessed as inhibition of cell viability at 20 uM relative to control; format: functional
HCT-116 [11] = experiment: Anticancer activity against human HCT-116 cells assessed as reduction in cell viability; format: functional, cell-based
BXPC-3 = experiment: Antiproliferative activity against human BXPC-3 cells assessed as reduction in cell growth incubated for 72 hrs by MTT assay; format: functional, cell-based; settings: Homo sapiens, BXPC-3, 72 h
HeLa [12] = experiment: Antiproliferative activity against human HeLa cells assessed as reduction in cell growth by MTT assay; format: functional, cell-based
A549 [13] = experiment: Antiproliferative activity against human A549 cells assessed as reduction in cell growth by MTT assay; format: functional, cell-based
HeLa [14] = experiment: Antiproliferative activity against human HeLa cells assessed as reduction in cell viability incubated for 24 hrs by MTT assay; format: functional, cell-based
A549 [15] = experiment: Antiproliferative activity against human A549 cells assessed as reduction in cell viability incubated for 24 hrs by MTT assay; format: functional, cell-based; settings: A549, 24 h
HCT-116 [16] = experiment: Antiproliferative activity against human HCT-116 cells assessed as reduction in cell viability incubated for 24 hrs by MTT assay; format: functional, cell-based; settings: HCT-116, 24 h
A549 [17] = experiment: Cytotoxicity against human A549 cells assessed as reduction in cell viability by MTT assay; format: functional, cell-based
MCF7 [18] = experiment: Cytotoxicity against human MCF7 cells assessed as reduction in cell viability by MTT assay; format: functional, cell-based
[19] = Cytotoxicity against human BEAS-2B cells assessed as reduction in cell viability by MTT assay; format: toxicity, cell-based
KBv200 = experiment: Cytotoxicity against human KBv200 cells assessed as reduction in cell viability incubated for 72 hrs by SRB assay; format: functional, cell-based; settings: KBv200, 72 h
K562/Adr = experiment: Antiproliferative activity against human K562/Adr cells assessed as reduction in cell growth incubated for 72 hrs by MTT assay; format: functional, cell-based
HeLa [20] = experiment: Antiproliferative activity against human HeLa cells assessed as reduction in cell viability incubated for 48 hrs by MTT assay; format: functional, cell-based
MDA-MB-231 [21] = experiment: Antiproliferative activity against human MDA-MB-231 cells; format: functional, cell-based
T47D = experiment: Antiproliferative activity against human T47D cells; format: functional, cell-based
MCF7 [22] = experiment: Antiproliferative activity against human MCF7 cells; format: functional, cell-based
LoVo = experiment: Antiproliferative activity against human LoVo cells; format: functional, cell-based
HCT-116 [23] = experiment: Antiproliferative activity against human HCT-116 cells; format: functional, cell-based

Structure (SMILES): COc1cccc2c1C(=O)c1c(O)c3c(c(O)c1C2=O)C[C@@](O)(C(=O)CO)C[C@@H]3O[C@H]1C[C@H](N)[C@H](O)[C@H](C)O1.Cl [DOXORUBICIN HYDROCHLORIDE]
- IC50 (DU-145): 3.82 µg/mL
- IC50 (MDA-MB-231 [1]): 8.64 µg/mL
- IC50 (HepG2 [2]): 26.7 µg/mL
- IC50 (HeLa [3]): 12.6 µg/mL

Structure (SMILES): CCc1cc(C(=O)c2ccccc2Cl)c(NC(c2cc(OC)c(OC)c(OC)c2)c2c(O)ccc3ccccc23)s1 (stereo not given)
- IC50 [4]: 32.8 µM
- GI50 (A549 [5]): < 10 µg/mL
- GI50 (PC-3): < 10 µg/mL
- GI50 (MCF7 [6]): < 10 µg/mL
- GI50 (HepG2 [7]): < 10 µg/mL
- IC50 [8]: 33.5 µM

Structure (SMILES): N#CC1=C(N)Oc2ccccc2C1P(=O)(OCc1ccccc1)OCc1ccccc1 (stereo not given)
- IC50 (A549 [9]): 26.5 µM
- IC50 (NIH3T3): 8.73 µM
- IC50 (HL-60): 6.25 µM
- IC50 (Bacillus subtilis): > 10 µM
- IC50 (Escherichia coli): > 10 µM

Structure (SMILES): C[C@H]1c2cccc(O)c2C(=O)C2=C(O)[C@]3(O)C(=O)C(C(N)=O)=C(O)[C@@H](N(C)C)[C@@H]3[C@@H](O)[C@@H]21 [DOXYCYCLINE ANHYDROUS]
- IC50 (Bacillus subtilis): 0.126 µM
- IC50 (Escherichia coli): 0.1 µM

Structure (SMILES): Nc1ccn([C@@H]2O[C@H](CO)[C@@H](O)C2(F)F)c(=O)n1 [GEMCITABINE]
- IC50 (BXPC-3): 2.3 µM

Structure (SMILES): Cc1c2n(c3ccccc13)C(O)(C(F)(F)F)C=C2c1ccccc1 (stereo not given)
- IC50 (HeLa [12]): 31.6 µM
- IC50 (A549 [13]): 1.26 µM

Structure (SMILES): CCc1cc(C(=O)c2ccccc2Cl)c(NC(c2ccc(F)cc2)c2c(O)ccc3ccccc23)s1 (stereo not given)
- IC50 [4]: 31.3 µM
- GI50 (A549 [5]): < 10 µg/mL
- GI50 (PC-3): < 10 µg/mL
- GI50 (MCF7 [6]): < 10 µg/mL
- GI50 (HepG2 [7]): < 10 µg/mL
- IC50 [8]: 29.8 µM

Structure (SMILES): Cc1cc(C(F)(F)F)c2c(n1)-c1ccccc1C2c1ccsc1 (stereo not given)
- IC50 (HeLa [14]): 2.32 µM
- IC50 (A549 [15]): > 50 µM
- IC50 (HCT-116 [16]): > 50 µM

Structure (SMILES): COC(=O)c1nc2nc(Oc3ccccc3)c(C#N)c(-c3cccc([N+](=O)[O-])c3)c2c(N)c1C(=O)OC
- IC50 (A549 [17]): 6.12 µg/mL (≈ 12.3 µM)
- IC50 (MCF7 [18]): 1.48 µg/mL (≈ 2.96 µM)
- IC50 [19]: 4.09 µg/mL (≈ 8.19 µM)

Structure (SMILES): CCC1=C[C@@H]2CN(C1)Cc1c([nH]c3ccccc13)[C@@](C(=O)OC)(c1cc3c(cc1OC)N(C)[C@H]1[C@@](O)(C(=O)OC)[C@H](OC(C)=O)[C@]4(CC)C=CCN5CC[C@]31[C@@H]54)C2 [VINORELBINE]
- IC50 (KBv200): 0.434 µM
- IC50 (K562/Adr): 0.558 µM

Structure (SMILES): CN1C(=O)C2(N=C(c3ccccc3)N3CCc4cc(Br)cc2c43)c2ccccc21 (stereo not given)
- IC50 (A549 [15]): 1 µM

Structure (SMILES): CC(C)OC(=O)C1=CN(c2cccc(Br)c2)CC(O)(c2ccccc2)O1 (stereo not given)
- inhibition at 20 µM (HCT-116 [10]): 59%
- IC50 (HCT-116 [11]): 7.6 µM

Structure (SMILES): COc1ccc(C2c3ccccc3-c3nc(C)cc(C(F)(F)F)c32)cc1OC (stereo not given)
- IC50 (HeLa [14]): 5.52 µM
- IC50 (A549 [15]): 19.5 µM
- IC50 (HCT-116 [16]): 15.4 µM

Structure (SMILES): C=C1N(S(=O)(=O)c2ccc(C)cc2)c2ccccc2[C@]1(C)N
- IC50 (MDA-MB-231 [21]): 2.15 µM
- IC50 (T47D): 2.88 µM
- IC50 (MCF7 [22]): 2.21 µM
- IC50 (LoVo): 3.65 µM
- IC50 (HCT-116 [23]): 4.3 µM

Second part, led by results:

- IC50 (HCT-116 [11]): 7.1 µM
Structure (SMILES): CC(C)OC(=O)C1=CN(c2ccccc2)CC(O)(c2cccc(Cl)c2)O1 (stereo not given)
- inhibition at 20 µM (HCT-116 [10]): 77%

- IC50 (BXPC-3): 1.7 µM
Structure (SMILES): Cc1ccc([C@@H]2NC(=O)n3c(cc4ccccc43)C23CC3)cc1

- IC50 (HeLa [14]): 1.6 µM
- IC50 (A549 [15]): 9.18 µM
- IC50 (HCT-116 [16]): 1.63 µM
Structure (SMILES): O=C1/N=C2/c3ccccc3C(=O)C23C(=C(c2cccs2)N2CCc4cccc3c42)C(=O)c2ccccc21 (stereo not given)

- IC50 (HeLa [14]): 6.65 µM
- IC50 (A549 [15]): 12.3 µM
- IC50 (HCT-116 [16]): 14.9 µM
Structure (SMILES): COc1ccc(C2c3ccccc3-c3nc(C)cc(C(F)(F)F)c32)cc1 (stereo not given)

- IC50 (HeLa [20]): 27.3 µM
Structure (SMILES): Cc1nn(-c2ccc(C#N)cc2)c(O)c1-c1ccccc1C1=Nc2ccccc2C1(C)C

- IC50 [4]: 25.1 µM
- GI50 (A549 [5]): < 10 µg/mL
- GI50 (PC-3): < 10 µg/mL
- GI50 (MCF7 [6]): < 10 µg/mL
- GI50 (HepG2 [7]): < 10 µg/mL
- IC50 [8]: 27.3 µM
Structure (SMILES): O=C1O[C@H]([C@@H](O)CO)C(O)=C1O [ASCORBIC ACID]

- IC50 (HCT-116 [11]): 9.4 µM
Structure (SMILES): CC(C)OC(=O)C1=CN(c2ccc3ccccc3c2)CC(O)(c2ccccc2)O1 (stereo not given)
- inhibition at 20 µM (HCT-116 [10]): 56%

- IC50 (BXPC-3): 3.1 µM
Structure (SMILES): Cc1ccc(C2NC(=O)n3c(cc4ccccc43)C23CC3)cc1 (racemic)

- IC50 (BXPC-3): 6.1 µM
Structure (SMILES): Cc1ccc([C@H]2NC(=O)n3c(cc4ccccc43)C23CC3)cc1 (stereo in doubt; (R)-16a)
